Measured values reported in ChEMBL document CHEMBL3763040, “3,5-Bis(3-alkylaminomethyl-4-hydroxybenzylidene)-4-piperidones: A Novel Class of Potent Tumor-Selective Cytotoxins” (J Med Chem, 2016).

Legend:
[1] = Cytotoxicity against human SW620 cells after 48 hrs by sulforhodamine B assay; assay type: functional, cell-based; conditions: SW-620, 48 h
[2] = Cytotoxicity against human HCT15 cells after 48 hrs by sulforhodamine B assay; assay type: functional, cell-based; conditions: HCT-15, 48 h
HT-29 = assay: Cytotoxicity against human HT-29 cells after 48 hrs by sulforhodamine B assay; assay type: functional, cell-based; conditions: HT-29, 48 h
[3] = Cytotoxicity against human HCC2998 cells after 48 hrs by sulforhodamine B assay; assay type: functional, cell-based; conditions: HCC 2998, 48 h
[4] = Cytotoxicity against human HCT116 cells after 48 hrs by sulforhodamine B assay; assay type: functional, cell-based; conditions: HCT-116, 48 h
KM12 = assay: Cytotoxicity against human KM12 cells after 48 hrs by sulforhodamine B assay; assay type: functional, cell-based; conditions: KM12, 48 h
[5] = Cytotoxicity against human COLO205 cells after 48 hrs by sulforhodamine B assay; assay type: functional, cell-based; conditions: COLO 205, 48 h
HL-60 = assay: Selectivity index, ratio of CC50 for HGF to CC50 for human HL60 cells; conditions: pooled result: one value given for 3 cell lines, strains, targets or settings
HSC-4 = assay: Selectivity index, ratio of CC50 for HGF to CC50 for human HSC4 cells; conditions: pooled result: one value given for 3 cell lines, strains, targets or settings
HSC-2 = assay: Selectivity index, ratio of CC50 for HGF to CC50 for human HSC2 cells; conditions: pooled result: one value given for 3 cell lines, strains, targets or settings
[6] = Antiproliferative activity against human Molt4/C8 cells assessed as cell survival after 72 hrs by coulter counter analysis; assay type: functional, cell-based; conditions: MOLT-4, 72 h
[7] = Cytotoxicity against human HL60 cells assessed as cell death after 48 hrs by MTT assay; assay type: functional; conditions: HL-60, 48 h
[8] = Cytotoxicity against human HSC3 cells assessed as cell death after 48 hrs by MTT assay; assay type: functional; conditions: HSC-3, 48 h
HSC-3 = assay: Selectivity index, ratio of CC50 for HGF to CC50 for human HSC3 cells; conditions: pooled result: one value given for 3 cell lines, strains, targets or settings
[9] = Cytotoxicity against HPLF assessed as cell death after 48 hrs by MTT assay; conditions: human, HPLF cells
[10] = Cytotoxicity against human HSC2 cells assessed as cell death after 48 hrs by MTT assay; assay type: functional; conditions: HSC-2, 48 h
[11] = Cytotoxicity against HPC assessed as cell death after 48 hrs by MTT assay; conditions: human, HPC cells
[12] = Potency index, ratio of melphalan IC50 to compound IC50 for antiproliferative activity against human Molt4/C8 cells; assay type: functional, MOLT-4
[13] = Cytotoxicity against HGF assessed as cell death after 48 hrs by MTT assay; conditions: human, HGF cells
[14] = Cytotoxicity against human HSC4 cells assessed as cell death after 48 hrs by MTT assay; assay type: functional; conditions: HSC-4, 48 h
CCRF-CEM [15] = assay: Antiproliferative activity against human CEM cells assessed as cell survival after 72 hrs by coulter counter analysis; assay type: functional, cell-based
L1210 = assay: Antiproliferative activity against mouse L1210 cells assessed as cell survival after 48 hrs by coulter counter analysis; assay type: functional, cell-based; conditions: L1210, 48 h
CCRF-CEM [16] = assay: Potency index, ratio of melphalan IC50 to compound IC50 for antiproliferative activity against human CEM cells; assay type: functional

Row | SMILES | Selectivity Index (HL-60) | Selectivity Index (HSC-4) | Selectivity Index (HSC-2) | IC50 [6] [µM] | CC50 [7] [µM] | CC50 [8] [µM] | Selectivity Index (HSC-3) | CC50 at 48 h [9] [µM] | CC50 [10] [µM] | CC50 at 48 h [11] [µM] | Ratio IC50 [12] | CC50 at 48 h [13] [µM] | CC50 [14] [µM] | IC50 (CCRF-CEM [15]) [µM] | IC50 (L1210) [µM] | further results
1 | O=c1[nH]cc(F)c(=O)[nH]1 [FLUOROURACIL] |  |  |  |  |  |  |  |  |  |  |  |  |  |  |  | CC50 [1]: > 2510 µM; TGI [1]: > 1860 µM; CC50 [2]: > 2510 µM; TGI [2]: > 1860 µM; CC50 (HT-29): > 2510 µM; TGI (HT-29): > 1860 µM; CC50 [3]: > 2510 µM; TGI [3]: > 1860 µM; CC50 [4]: > 2510 µM; TGI [4]: > 1860 µM; CC50 (KM12): > 2510 µM; TGI (KM12): > 1860 µM; CC50 [5]: > 2510 µM; TGI [5]: > 1860 µM
2 | O=C1/C(=C/c2ccc(O)cc2)CCC/C1=C\c1ccc(O)cc1 | >105 | >3.23 | >12.5 | 1.06 | 1.9 | 50 | >4 | > 200 | 16 | > 200 | 3.06 | > 200 | 62 | 6.96 | 10.7 | 
3 | N[C@@H](Cc1ccc(N(CCCl)CCCl)cc1)C(=O)O | 150 | 6.56 | 24.1 |  | 1.4 | 25 | 8.4 |  | 8.7 |  |  |  | 32 |  |  | 
4 | Cl.Cl.Cl.O=C1/C(=C/c2ccc(O)c(CN3CCOCC3)c2)CNC/C1=C\c1ccc(O)c(CN2CCOCC2)c1 | 5.11 | 3.3 | 6.05 | 1.6 | 0.71 | 1 | 3.63 | 3.8 | 0.6 | 3.4 | 2.03 | 3.7 | 1.1 | 1.67 | 7.78 | Ratio IC50 (CCRF-CEM [16]): 1.48
5 | O=C(/C=C/c1ccc(O)cc1)/C=C/c1ccc(O)cc1 | 4.21 | 3.35 | 3.09 | 3.69 | 3.9 | 5.4 | 3.04 | 16 | 5.3 | 9.2 |  | 24 | 4.9 | 3.38 | 7.74 | 
